Experimental data as given in patent publication US8173771B2, “Humanin receptor or humanin-like polypeptide receptor” (Keio Univeristy, priority 2005, dated 2012).
Peptide text beside a SMILES is read from it.

Target: T1, HN receptor (HNR; CNTF-R/WSX-1/gp130) on F11 cells (Mus musculus, UniProt O70394+O88507)
T1 construct: endogenous in cells; host or cells: F11 neurohybrid cells
T1 sequence (O70394 25-623): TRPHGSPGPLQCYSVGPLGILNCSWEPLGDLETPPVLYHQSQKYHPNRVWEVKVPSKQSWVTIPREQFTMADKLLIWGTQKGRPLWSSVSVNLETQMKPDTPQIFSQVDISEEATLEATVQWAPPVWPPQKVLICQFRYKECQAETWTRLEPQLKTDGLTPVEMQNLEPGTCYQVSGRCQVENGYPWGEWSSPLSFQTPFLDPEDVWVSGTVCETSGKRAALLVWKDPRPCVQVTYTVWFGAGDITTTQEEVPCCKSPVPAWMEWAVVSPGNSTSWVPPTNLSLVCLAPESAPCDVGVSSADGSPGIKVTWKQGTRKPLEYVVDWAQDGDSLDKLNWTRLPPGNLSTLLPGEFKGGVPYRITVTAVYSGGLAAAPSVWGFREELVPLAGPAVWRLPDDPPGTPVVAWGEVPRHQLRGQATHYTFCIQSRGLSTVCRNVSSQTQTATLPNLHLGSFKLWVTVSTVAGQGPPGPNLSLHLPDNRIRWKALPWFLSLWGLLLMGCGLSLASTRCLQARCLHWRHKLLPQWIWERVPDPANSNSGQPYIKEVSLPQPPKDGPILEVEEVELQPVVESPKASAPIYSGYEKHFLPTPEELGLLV
T1 sequence (O88507 23-342): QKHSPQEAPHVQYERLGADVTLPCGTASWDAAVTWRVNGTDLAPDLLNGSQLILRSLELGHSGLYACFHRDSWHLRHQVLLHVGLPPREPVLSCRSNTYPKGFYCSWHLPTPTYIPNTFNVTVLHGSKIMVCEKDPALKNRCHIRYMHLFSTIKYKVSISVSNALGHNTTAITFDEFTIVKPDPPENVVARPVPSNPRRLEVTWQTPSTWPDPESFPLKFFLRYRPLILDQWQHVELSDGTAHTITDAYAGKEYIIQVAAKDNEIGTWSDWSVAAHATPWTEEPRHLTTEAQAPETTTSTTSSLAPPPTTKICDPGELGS
T1 sequence (Q00560 23-917 partner): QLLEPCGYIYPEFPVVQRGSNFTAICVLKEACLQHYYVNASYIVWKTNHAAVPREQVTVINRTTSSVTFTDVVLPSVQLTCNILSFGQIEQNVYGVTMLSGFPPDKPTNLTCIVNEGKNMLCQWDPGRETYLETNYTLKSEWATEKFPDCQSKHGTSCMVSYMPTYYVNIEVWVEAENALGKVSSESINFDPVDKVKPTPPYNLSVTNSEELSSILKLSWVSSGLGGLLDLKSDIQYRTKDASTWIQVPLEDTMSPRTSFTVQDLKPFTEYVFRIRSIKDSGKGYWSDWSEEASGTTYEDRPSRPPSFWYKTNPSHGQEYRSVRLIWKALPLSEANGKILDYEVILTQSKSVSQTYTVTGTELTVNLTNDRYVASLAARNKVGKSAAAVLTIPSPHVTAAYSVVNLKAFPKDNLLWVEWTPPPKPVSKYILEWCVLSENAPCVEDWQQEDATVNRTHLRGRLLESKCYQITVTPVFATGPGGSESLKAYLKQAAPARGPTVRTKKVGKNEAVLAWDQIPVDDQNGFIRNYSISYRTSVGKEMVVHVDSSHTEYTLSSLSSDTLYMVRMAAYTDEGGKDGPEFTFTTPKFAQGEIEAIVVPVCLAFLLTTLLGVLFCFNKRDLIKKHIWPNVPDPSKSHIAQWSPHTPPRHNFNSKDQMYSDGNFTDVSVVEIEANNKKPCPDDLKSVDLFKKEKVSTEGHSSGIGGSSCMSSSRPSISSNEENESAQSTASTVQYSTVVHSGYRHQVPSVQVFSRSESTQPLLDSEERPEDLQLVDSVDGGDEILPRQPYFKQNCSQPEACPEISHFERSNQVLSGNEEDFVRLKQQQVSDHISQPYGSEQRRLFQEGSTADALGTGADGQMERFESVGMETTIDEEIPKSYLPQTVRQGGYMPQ
Assay: Immunofluorescence-based binding assay (2): biotin-HN / biotin-HNG binding to F11 cells
Protocol: A) F11 cells were seeded on 96-well plates coated with poly-L-lysine (7×10^3 cells/well). An indicated amount of biotin-HN or biotin-HNG was added to the cells with or without 10 μM of unlabelled HNG or HNA, followed by a binding assay based on immunofluorescence reaction (2) (left panels). On the other hand, F11 cells were transfected with 0.5 μg of pcDNA3.1/GS-human CNTF-R, pEF1/MycHis-human WSX-1, and 1.0 μg of pCAG-human gp130. At 24 hrs after the transfection, the cells were re-seeded on 96-well plates coated with poly-L-lysine (7×10^3 cells/well). After 36 hrs the re-seeding, an indicated amount of biotin-HN or biotin-HNG was added to the cells with or without 10 μM of unlabeled HNG or HNA, followed by a binding assay based on immunofluorescence reaction (2) (right panels).
B) F11 cells were transfected with 0.5 μg of pRNA-U1.6/Shuttle vector, pRNA-U6.1/Shuttle-WSX-1 siRNA, pRNA-U6.1/Shuttle-CNTF-R siRNA, both pRNA-U6.1/Shuttle-WSX-1 siRNA and pRNA-U6.1/Shuttle-CNTF-R siRNA (0.5 μg each), pRNA-U6.1/Shuttle-FPR2 siRNA or pRNA-U6.1/Shuttle-LIFR siRNA. The total amount of vectors was adjusted to be 1.0 μg by including a backbone vector. At 24 hrs after the transfection, an indicated amount of biotin-HNG was added with or without unlabeled HNG, followed by a binding assay based on immunofluorescence reaction (2) at 72 hrs after the transfection.
E) F11 cells on 6-well plate (7×10^4 cells/well) were transfected with 1.0 μg of pRNA-U6.1/Shuttle vector, pRNA-U6.1/Shuttle-Bax siRNA, or both pRNA-U6.1/Shuttle-WSX-1 siRNA and pRNA-U6.1/Shuttle-CNTF-R siRNA (0.5 μg each). At 72 hrs after the transfection, the cells were added with an indicated amount of biotin-HN with or without unlabeled HN or HNA (100 μM) and subjected to an HN-binding assay based on immunofluorescence.
F11 cells (7×10^4/well in 6-well plates) were replated into 96-well plates (7×10^3 cells/well) at 24 hrs after transfection with indicated amounts of the plasmids encoding mycHis-WSX or V5-CNTF-R, and with PCAG-human gp130 if required. At 36 hrs after transfection, the cells were added with biotin-labeled HN or HNG of indicated concentrations in the presence or the absence of HNG (S14G-HN) or HNA (C8A-HN) of indicated concentrations (Hashimoto et al., 2001 a). After 6 hrs incubation, they were fixed with 4% paraformaldehyde in PBS for 30 min. After washing with PBS, cells were stained with FITC-conjugated avidin (Molecularprobe, Eugene, Oreg., USA). Immunofluorescence intensity was measured (excitation=485 nm, emission=535 nm) with a spectrofluorometer (Wallac1420 ARVOsx Multi Label Counter). Immunohistochemical analysis was done with a laser-scanning, confocal microscope LSM (Carl Zeiss, Germany).

In the case of `CC[C@H](C)[C@H](NC(=O)[C@H](CCC(=O)O)NC(=O)CNC(=O)[C@@H](NC(=O)[C@H](CC(C)C)NC(=O)[C@H](CC(C)C)NC(=O)[C@H](CC(C)C)NC(=O)[C@H](CC(C)C)NC(=O)[C@H](CS)NC(=O)[C@H](CO)NC(=O)[C@H](Cc1ccccc1)NC(=O)CNC(=O)[C@H](CCCNC(=N)N)NC(=O)[C@@H]1CCCN1C(=O)[C@H](C)NC(=O)[C@@H](N)CCSC)[C@@H](C)O)C(=O)N[C@@H](CC(=O)O)C(=O)N[C@@H](CC(C)C)C(=O)N1CCC[C@H]1C(=O)N[C@H](C(=O)N[C@@H](CCCCN)C(=O)N[C@@H](CCCNC(=N)N)C(=O)N[C@@H](CCCNC(=N)N)C(=O)N[C@@H](C)C(=O)O)C(C)C` [HNG, S14 G-Humanin] (H-MAPRGFSCLLLLTGEIDLPVKRRA-OH; N-terminus and C-terminus assumed), the “concentration of saturation of binding” value (biotin-HNG, concentration-dependent binding) is reported as 10 nM, the “binding to F11 cells” value (expression of FPR2 or LIFR decreased by siRNA) is reported as “not be affected” and the “inhibition of binding by over-addition of unlabeled peptide” value (specificity of binding) is reported as “almost completely inhibit”.
